According to patent US12139472B2, “Inhibitors of advanced glycation end products” (priority 2019, dated 2024):
Values joined by “and” are separate entries in the source; they are usually repeats but may differ in a detail not shown here. Equal values may be shown once.

Experiments:
[1] = Pharmacokinetic study for PTG-630 (IV and PO): plasma, whole blood, tissues, urine; type: in vivo, Sprague Dawley rats; conditions: for PTG-4997 (metabolite) concentration: Table 2, for PTG-4997 (metabolite) after PTG-630 PO 100 mg/kg
Procedure: The samples were analyzed in two batches with standards and QCs prepared on rat plasma and rat urine. Analyst® 1.6 (SCIEX) software was used for statistical analysis of bioanalytical data. […] Dose samples collected at 0.083 h-6 h postdose were diluted 4 times with SD rat plasma prior to plating. Twenty-four (24) hours plasma samples were assayed without dilution. […] Two sciatic nerve samples were excluded from analysis, due to the insufficient sample size. […] The 12 non-cannulated animals were arbitrarily assigned to groups upon arrival and housed together throughout the experiment. The animals were acclimated to their designated housing for at least 24 hours before the first day of dosing. […] Blood samples were collected via cannula from IV dosed rats or by cardiac stick from PO dosed rats at the specified time points for sampling pharmacokinetics. Blood was collected into K2EDTA tubes. Tubes were mixed gently after blood collection, chilled and centrifuged at 3000 rpm, 4° C. within 30 minutes upon collection. The samples were centrifuged at 4° C. and the resultant plasma separated. […] Urine from Group 1 was collected via polycarbonate tubes from rats placed in drug metabolism cages. Urine was maintained and room temperature through the collection period.

[2] = system: CYP3A; type: in vitro ADME, human; conditions: HLM
Description: Compound 5 (PTG-630 free base) and 7 additional compounds for CYP3A P450 inhibition.
Imidazole (and benzimidazole) containing drugs are ubiquitous in pharmacological practice; however, drug-drug interactions (DDI) have been observed with some imidazole-containing classes, such as the antifungal azoles typified by ketoconazole. It is believed that the imidazole moiety accounts for their ability to inhibit CYP3A, the major DDI enzyme that metabolizes up to 50% of common drugs. The compounds of the disclosure incorporate an imidazole moiety attached to a pyridine ring via the imidazole C-2. They all share an imidazo-hydroxypyridine theme that can bind redox metal ions, while differing in the nature of the X side-chain. The potential of the compounds of the disclosure for DDI was evaluated by screening their inhibition of CYP3A.
Two studies were conducted in human liver microsomes (HLM). Lead candidate PTG-630 was tested using the Eurofins G232 panel (Drug Metab Dispos. 2001 January; 29(1):23-9), where inhibition was measured against seven CYP enzymes; CYP3A4 was tested using two different substrates, midazolam and testosterone. In a second study, inhibition of CYP3A4 (midazolam substrate only) was compared for 8 compounds of interest. The test protocol involved one-point measurements in duplicate, where inhibition was measured at a fixed 10 μM concentration of candidate inhibitors. In all cases, the substrate for each CYP enzyme was at a concentration equal to its specific Km value that was independently obtained from an 8-point dose-response study. Based on the observed value for percent inhibition for each test compound, we calculated of an IC50 assuming a competitive mode of inhibition. If percent inhibition for an inhibitor at a concentration of [I] is denoted by P, then: IC50=[I]*(100−P)/P In the single-point assay, [I] is 10 μM. If measured inhibition is 10%, then IC50=10*(100-10)/10=90 μM. […] As discussed in Lin et al. (J Pharm Sci. 2007 September; 96(9):2485-93; doi: 10.1002/jps.20884), CYP inhibition is broadly interpreted as being “potent” if IC50<1 μM, “moderate” if 1 μM<IC50<10 μM, and “weak” if IC50>10 μM.

## Cc1ncc(CO)c(-c2ncc[nH]2)c1O [PTG-4997]
[1]; muscle, 2 h postdose, Mean
  PTG-4997 (metabolite) concentration: <BLQ
[1]; muscle, 2 h postdose, individual animals
  PTG-4997 (metabolite) concentration: <BLQ
[1]; muscle, 4 h postdose, Mean
  PTG-4997 (metabolite) concentration: 54 ng/mL
[1]; muscle, 4 h postdose, individual animals, 100 mg/kg
  PTG-4997 (metabolite) concentration: 108 ng/mL and <BLQ
[1]; muscle, 6 h postdose, Mean
  PTG-4997 (metabolite) concentration: 127.5 ng/mL
[1]; muscle, 6 h postdose, individual animals, 100 mg/kg
  PTG-4997 (metabolite) concentration: 108 ng/mL and 147 ng/mL
[1]; muscle, 24 h postdose, Mean
  PTG-4997 (metabolite) concentration: <BLQ
[1]; muscle, 24 h postdose, individual animals
  PTG-4997 (metabolite) concentration: <BLQ
[1]; plasma, 0.5 h postdose, Mean
  PTG-4997 (metabolite) concentration: <BLQ
[1]; plasma, 0.5 h postdose, individual animals
  PTG-4997 (metabolite) concentration: <BLQ
[1]; plasma, 1 h postdose, Mean
  PTG-4997 (metabolite) concentration: <BLQ
[1]; plasma, 1 h postdose, individual animals
  PTG-4997 (metabolite) concentration: <BLQ
[1]; plasma, 2 h postdose, Mean
  PTG-4997 (metabolite) concentration: <BLQ
[1]; plasma, 2 h postdose, individual animals
  PTG-4997 (metabolite) concentration: <BLQ
[1]; plasma, 4 h postdose, Mean
  PTG-4997 (metabolite) concentration: <BLQ
[1]; plasma, 4 h postdose, individual animals
  PTG-4997 (metabolite) concentration: <BLQ
[1]; plasma, 6 h postdose, Mean
  PTG-4997 (metabolite) concentration: <BLQ
[1]; plasma, 6 h postdose, individual animals
  PTG-4997 (metabolite) concentration: <BLQ
[1]; plasma, 24 h postdose, Mean
  PTG-4997 (metabolite) concentration: <BLQ
[1]; plasma, 24 h postdose, individual animals
  PTG-4997 (metabolite) concentration: <BLQ
[1]; sciatic nerve, 0.5 h postdose, Mean
  PTG-4997 (metabolite) concentration: <BLQ
[1]; sciatic nerve, 0.5 h postdose, individual animals
  PTG-4997 (metabolite) concentration: <BLQ
[1]; sciatic nerve, 1 h postdose, Mean
  PTG-4997 (metabolite) concentration: <BLQ
[1]; sciatic nerve, 1 h postdose, individual animals
  PTG-4997 (metabolite) concentration: <BLQ
[1]; sciatic nerve, 2 h postdose, Mean
  PTG-4997 (metabolite) concentration: <BLQ
[1]; sciatic nerve, 2 h postdose, individual animals
  PTG-4997 (metabolite) concentration: <BLQ
[1]; sciatic nerve, 4 h postdose, Mean
  PTG-4997 (metabolite) concentration: <BLQ
[1]; sciatic nerve, 4 h postdose, individual animals
  PTG-4997 (metabolite) concentration: <BLQ
[1]; sciatic nerve, 6 h postdose, Mean
  PTG-4997 (metabolite) concentration: <BLQ
[1]; sciatic nerve, 6 h postdose, individual animals
  PTG-4997 (metabolite) concentration: <BLQ
[1]; sciatic nerve, 24 h postdose, Mean
  PTG-4997 (metabolite) concentration: <BLQ
[1]; sciatic nerve, 24 h postdose, individual animals
  PTG-4997 (metabolite) concentration: <BLQ
[1]; after PTG-630 PO
  AUC last in kidney, times lower than PTG-630 in kidneys: 3 times
[1]; metabolite PTG-4997 after PTG-630 IV
  detection in plasma following IV dosing: only detected in the plasma of single animal
[1]; metabolite PTG-4997 after PTG-630 PO
  presence in kidney: present in steady level for 24 hours
[1]; metabolite PTG-4997 after PTG-630 PO, 4-6 hours postdose
  presence in muscle samples: intermittently present
[1]; metabolite PTG-4997 after PTG-630 PO, any timepoint
  detection in plasma following PO administration: not detectable
[1]; metabolite PTG-4997 after PTG-630 PO, any timepoint through 24 hours postdose
  presence in liver samples: undetectable
[1]; urine, 24 hours, after PTG-630 IV
  average amount recovered from each animal: 146 ng
[1]; urine, after PTG-630 IV
  excretion rate, times lower than PTG-630: 34 times
[2]; midazolam, from one-point % inhibition at 10 μM, IC50=[I]*(100−P)/P
  Estimated IC50: — None
[2]; substrate midazolam at Km, Inhib Conc. 1.0E−05 M
  P % inhib: −4.9%
